“Also recorded” adds a separate entry of the source.
Legend:
Mc3r of spiny dogfish = conditions: ref [3]; cited from earlier work
Mc3r of channel catfish = conditions: ref [12]; cited from earlier work
omMc3r [1] = assay: cAMP signaling, CRE luciferase reporter (pGL4.29) assay; format: cell-based, Onychostoma macrolepis; conditions: pGL4.29 (CRE) luciferase reporter
Procedure: (§1) In order to test whether omMc3r can be activated by ligands in vitro, we sub-cloned the coding region of omMc3r into pcDNA3.1 (+) vector (Invitrogen, Carlsbad, CA, USA) for subsequent transfection of cells. The constructed vector was further verified by sequencing before use.
(§2) Human embryonic kidney (HEK293T) cells were cultured in Dulbecco modified Eagle’s medium (DMEM, Invitrogen, Carlsbad, CA, USA) supplemented with 10% fetal bovine serum (FBS, Biological Industries, Kibbutz Beit Haemek, Israel) and placed in a humid environment containing 5% CO2 at 37 °C. Cells were passaged every 2 days.
(§3) This study employed the luciferase reporter system to examine whether the four ligands can activate downstream signals through omMc3r. The luciferase reporter vector pGL4.29 and pGL4.33 of Promega (Madison, WI, USA) contain cAMP respose element (CRE) and serum response element (SRE) in their promoter regions, which can monitor the activation of cAMP and MAPK/ERK signaling pathways, respectively. The brief operating procedure was as follows: the HEK293T cells were passaged to a 6-well plate 24 h before transfection. […] An Infinite F200 microplate reader (Tecan, Männedorf, Switzerland) was used to measure the luciferase activities. […]

omMc3r [2] = assay: MAPK/ERK (ERK1/2) signaling, SRE luciferase reporter (pGL4.33) assay; format: cell-based, Onychostoma macrolepis
Procedure: as §1, §2, §3

Human MC3R = conditions: ref [3]; cited from earlier work

adrenocorticotropin [ACTH]
ligand affinity of spiny dogfish Mc3r (in words) (Mc3r of spiny dogfish): highest affinity
ligand affinity of channel catfish Mc3r (in words) (Mc3r of channel catfish): highest affinity

β-melanocyte-stimulating hormone [β-MSH]
EC50 (omMc3r [1]; HEK293T cells transiently transfected with omMc3r plasmid, ligand 6 h in serum-free DMEM, fold change vs serum-free DMEM, nonlinear regression, mean ± SEM (n = 3, figure legend: mean (SD) of three independent experiments), read-out: EC50, cAMP Response): 270 ± 4.95 nM
activation of cAMP signaling through omMc3r (in words) (omMc3r [1]; HEK293T cells, ligand 6 h): can all activate the cAMP and MAPK/ERK signaling pathway; also recorded: can activate cAMP and MAPK/ERK signaling pathways in a dose-dependent manner; also recorded: could potently activate the Gαs-cAMP and MAPK/ERK signaling pathway through omMc3r; also recorded: could activate cAMP and the MAPK/ERK signaling through omMc3r with different degrees of potency
EC50 (omMc3r [2]; HEK293T cells co-transfected with omMc3r plasmid and pGL4.33 (SRE) luciferase reporter, ligand 6 h in serum-free DMEM, fold change vs serum-free DMEM, nonlinear regression, mean ± SEM (n = 3, figure legend: mean (SD) of three independent experiments), read-out: EC50, ERK1/2 Response): 4.85 ± 0.0107 µM
activation of MAPK/ERK signaling through omMc3r (in words) (omMc3r [2]; HEK293T cells, pGL4.33 (SRE) luciferase reporter, ligand 6 h): can all activate the cAMP and MAPK/ERK signaling pathway; also recorded: can activate cAMP and MAPK/ERK signaling pathways in a dose-dependent manner; also recorded: could potently activate the Gαs-cAMP and MAPK/ERK signaling pathway through omMc3r; also recorded: could activate cAMP and the MAPK/ERK signaling through omMc3r with different degrees of potency

γ-melanocyte-stimulating hormone [γ-MSH]
ligand preference of human MC3R (in words) (Human MC3R): unique preference

— PMC8749556, “Functional Characterization of Melanocortin-3 Receptor in a Hibernating Cavefish Onychostoma macrolepis” (Animals : an Open Access Journal from MDPI, 2021)
